Measured values published in paper PMC11148080, “Ru(II)-based complexes containing 2-thiouracil derivatives suppress liver cancer stem cells by targeting NF-κB and Akt/mTOR signaling” (Cell Death Discovery, 2024).
Several values for one entry are separate records, joined by “and”; a condition that tells them apart may be missing. Equal entries are not always repeated.

Tests used:
Type in all cases: cell-based, human
[1] = test system: HepG2 cells; experiment: EMT markers vimentin and E-cadherin by flow cytometry; conditions: HepG2, 24 h; 6 μM complex 2
Protocol: To stain the cell surface proteins, the cells were washed with an incubation buffer (0.5% bovine serum albumin in PBS), and then antibodies were added and incubated for 1 h at room temperature. The cells were then washed with PBS, and the fluorescence signal was measured by flow cytometry. CD133 and CD44 were quantified in YO-PRO-1 (Sigma‒Aldrich Co.) negative cells.
(§1) To stain intracellular proteins, the cells were harvested and resuspended in 0.5-1 mL of 4% formaldehyde for 10 min at 37 °C. The tube was then placed on ice for 1 min, after which the cells were prechilled and permeabilized using a sequence of 100% (30 min) to 90% (30 min) methanol with gentle mixing. After washing with incubation buffer (0.5% bovine serum albumin in PBS), primary antibodies were added and incubated for 1 h at room temperature. Finally, the cells were washed with PBS, and flow cytometry was used to measure cell fluorescence.

[2] = test system: HepG2 cells; experiment: qPCR array gene expression; design: key to RQ MTOR / RQ GSTP1 / RQ TXN / RQ TXNRD1 / RQ CTSS / RQ TOP2B / RQ NFKB1 / RQ HDAC1 / RQ AURKC / RQ NTN3 / RQ HDAC6 / RQ TNKS: RQ by 2^-ΔΔCT, fold vs 0.2% DMSO calibrator (=1); key to RQ BCL2 / RQ BIRC5 / RQ ERBB2 / RQ ERBB3 / RQ IGF1R / RQ CTSD / RQ ESR1 / RQ CDC25A / RQ HIF1A / RQ CDK9 / RQ MDM2 / RQ TP53 / RQ KRAS / RQ HDAC11 / RQ HDAC8: fold change by 2^-ΔΔCT vs 0.2% DMSO calibrator (=1); conditions: 12 h; 8 µM complex 1, 6 µM complex 2
Protocol: Total RNA was extracted using the RNeasy Plus Mini Kit (Qiagen; Hilden, Germany) following the manufacturer’s instructions. A NanoDrop® 1000 spectrophotometer (Thermo Fisher Scientific, Waltham, Massachusetts, USA) was used to quantify and assess the purity of the RNA. Reverse transcription was performed using the Superscript VILOTM enzyme (Invitrogen Corporation; Waltham, MA, USA), and a TaqMan® array human cancer drug target 96-well plate, fast (ID RPRWENH, Applied BiosystemsTM, Foster City, CA, USA) was used for the gene expression study by qPCR (ABI ViiA7, Applied Biosystems instrument). The cycle conditions were 2 min at 50 °C, 10 min at 95 °C, and 40 cycles of 15 s at 95 °C and 1 min at 60 °C. All the experiments were conducted under DNase/RNase-free conditions. The 2^-ΔΔCT method was used to calculate the relative quantification (RQ) of mRNA expression using Gene Expression SuiteTM Software (Applied BiosystemsTM). Cells treated with the negative control (0.2% DMSO) were used as a calibrator, and the RQs of the reference genes GAPDH, UBC and RPLP0 were used to normalize the responses.

[3] = test system: HepG2 cells; experiment: NF-κB and Akt/mTOR signaling protein levels by flow cytometry; conditions: HepG2, 24 h; for level of Akt1 / level of phospho-4EBP1 (T36/T45) / level of phospho-Akt (S473) / level of phospho-Akt (T308) / level of phospho-PI3K p85/p55 (T458/T199) / level of phospho-elF4E (S209) / level of phospho-mTOR (S2448): 8 μM complex 1, 6 μM complex 2
Protocol: as §1
For all flow cytometry analyses, cellular fluorescence was measured using a BD LSRFortessa cytometer, BD FACSDiva software (BD Biosciences) and FlowJo software 10 (FlowJo LLC; Ashland, OR, USA). A minimum of 10,000 events were obtained per sample for intracellular staining, and a minimum of 30,000 events per sample were acquired for cell surface protein staining. Doublets were removed using FSC-A vs FCS-H and SCC-A vs SCC-H. Cellular debris was excluded from the analysis.

[4] = test system: HepG2 cells; experiment: May-Grunwald-Giemsa staining morphology; conditions: 24, 48, 72 h
Protocol: Cells were grown on coverslips and stained with May-Grunwald-Giemsa. Subsequently, we employed light microscopy to examine and analyze morphological changes.

Structure (SMILES): Cc1cc(=O)nc([S][Ru+])[nH]1.F[P-](F)(F)(F)(F)F.c1ccc(-c2ccccn2)nc1.c1ccc(P(c2ccccc2)c2ccccc2)cc1.c1ccc(P(c2ccccc2)c2ccccc2)cc1 [Complex 2, trans-[Ru(6m2TU)(PPh3)2(bipy)]PF6]
- E-cadherin expression [1]: increased
- vimentin expression [1]: reduced
- RQ ABCC1 [2]: 1.941
- RQ AKT1 [2]: 1.087
- RQ AKT2 [2]: 1.490
- RQ ATF2 [2]: 2.672
- RQ AURKA [2]: 1.172
- RQ AURKB [2]: 1.242
- RQ AURKC [2]: 2.011
- RQ BCL2 [2]: 1.249
- RQ BIRC5 [2]: 1.033
- RQ CDC25A [2]: 6.141
- RQ CDK1 [2]: 0.752
- RQ CDK2 [2]: 1.120
- RQ CDK4 [2]: 1.730
- RQ CDK5 [2]: 1.104
- RQ CDK7 [2]: 2.039
- RQ CDK8 [2]: 3.664
- RQ CDK9 [2]: 1.146
- RQ CTSB [2]: 0.972
- RQ CTSD [2]: 1.586
- RQ CTSL [2]: 0.950
- RQ CTSS [2]: 0.866
- RQ EGFR [2]: 1.856
- RQ ERBB2 [2]: 1.118
- RQ ERBB3 [2]: 1.280
- RQ ESR1 [2]: 0.968
- RQ ESR2 [2]: 2.732
- RQ GRB2 [2]: 2.255
- RQ GSTP1 [2]: 0.276 and 0.27
- RQ HDAC1 [2]: 16.128
- RQ HDAC2 [2]: 2.118
- RQ HDAC3 [2]: 3.639
- RQ HDAC4 [2]: 0.456
- RQ HDAC6 [2]: 1.088
- RQ HDAC7 [2]: 2.228
- RQ HDAC8 [2]: 1.517
- RQ HDAC11 [2]: 3.379
- RQ HIF1A [2]: 3.509
- RQ HRAS [2]: 0.785
- RQ HSP90AA1 [2]: 3.278
- RQ HSP90B1 [2]: 2.205
- RQ IGF1R [2]: 1.357
- RQ KRAS [2]: 1.185
- RQ MDM2 [2]: 0.982
- RQ MDM4 [2]: 2.736
- RQ MTOR [2]: 1.092
- RQ NFKB1 [2]: 0.760
- RQ NRAS [2]: 0.469
- RQ NTN3 [2]: 0.712
- RQ PARP1 [2]: 1.065
- RQ PARP4 [2]: 2.503
- RQ PDGFRB [2]: 1.004
- RQ PGR [2]: 30.650
- RQ PIK3C2A [2]: 0.839
- RQ PIK3C3 [2]: 0.840
- RQ PIK3CA [2]: 0.441 and 0.44
- RQ PLK1 [2]: 0.509
- RQ PLK2 [2]: 5.868
- RQ PLK3 [2]: 2.039
- RQ PLK4 [2]: 0.844
- RQ PRKCA [2]: 1.337
- RQ PRKCB [2]: 0.506
- RQ PRKCD [2]: 0.340
- RQ PRKCE [2]: 1.636
- RQ PTGS2 [2]: 15.420
- RQ RHOA [2]: 0.628
- RQ RHOB [2]: 0.406
- RQ TERT [2]: 1.051
- RQ TNKS [2]: 2.369
- RQ TOP2A [2]: 0.423
- RQ TOP2B [2]: 0.235
- RQ TP53 [2]: 1.658
- RQ TXN [2]: 0.375 and 0.37
- RQ TXNRD1 [2]: 0.35
- level of Akt1 [3]: reduced
- level of phospho-4EBP1 (T36/T45) [3]: not affected
- level of phospho-Akt (S473) [3]: reduced
- level of phospho-Akt (T308) [3]: not affected
- level of phospho-PI3K p85/p55 (T458/T199) [3]: not affected
- level of phospho-elF4E (S209) [3]: not affected
- level of phospho-mTOR (S2448) [3]: reduced
- cell morphology (May-Grunwald-Giemsa) [4]: cell morphology changes that were associated with apoptosis

Structure (SMILES): F[P-](F)(F)(F)(F)F.O=c1cc[nH]c([S][Ru+])n1.c1ccc(-c2ccccn2)nc1.c1ccc(P(c2ccccc2)c2ccccc2)cc1.c1ccc(P(c2ccccc2)c2ccccc2)cc1 [Complex 1, trans-[Ru(2TU)(PPh3)2(bipy)]PF6]
- RQ ABCC1 [2]: 2.226
- RQ AKT1 [2]: 0.775
- RQ AKT2 [2]: 0.889
- RQ ATF2 [2]: 1.702
- RQ AURKA [2]: 0.691
- RQ AURKB [2]: 0.759
- RQ AURKC [2]: 1.565
- RQ BCL2 [2]: 1.602
- RQ BIRC5 [2]: 0.800
- RQ CDC25A [2]: 2.454
- RQ CDK1 [2]: 0.664
- RQ CDK2 [2]: 0.777
- RQ CDK4 [2]: 1.130
- RQ CDK5 [2]: 0.572
- RQ CDK7 [2]: 2.521
- RQ CDK8 [2]: 2.592
- RQ CDK9 [2]: 0.937
- RQ CTSB [2]: 0.797
- RQ CTSD [2]: 1.503
- RQ CTSL [2]: 1.271
- RQ CTSS [2]: 1.314
- RQ EGFR [2]: 1.217
- RQ ERBB2 [2]: 0.682
- RQ ERBB3 [2]: 0.915
- RQ ESR1 [2]: 0.564
- RQ ESR2 [2]: 2.165
- RQ GRB2 [2]: 1.501
- RQ GSTP1 [2]: 0.499 and 0.49
- RQ HDAC1 [2]: 0.833
- RQ HDAC2 [2]: 1.190
- RQ HDAC3 [2]: 0.989
- RQ HDAC4 [2]: 0.764
- RQ HDAC6 [2]: 0.564
- RQ HDAC7 [2]: 1.008
- RQ HDAC8 [2]: 0.970
- RQ HDAC11 [2]: 1.729
- RQ HIF1A [2]: 3.170
- RQ HRAS [2]: 0.753
- RQ HSP90AA1 [2]: 2.760
- RQ HSP90B1 [2]: 3.676
- RQ IGF1R [2]: 0.916
- RQ KRAS [2]: 1.809
- RQ MDM2 [2]: 1.685
- RQ MDM4 [2]: 2.263
- RQ MTOR [2]: 0.395 and 0.39
- RQ NFKB1 [2]: 0.451 and 0.45
- RQ NRAS [2]: 0.908
- RQ NTN3 [2]: 5.849
- RQ PARP1 [2]: 0.638
- RQ PARP4 [2]: 0.801
- RQ PDGFRB [2]: 0.964
- RQ PGR [2]: 8.929
- RQ PIK3C2A [2]: 0.855
- RQ PIK3C3 [2]: 1.001
- RQ PIK3CA [2]: 0.817
- RQ PLK1 [2]: 0.520
- RQ PLK2 [2]: 1.630
- RQ PLK3 [2]: 2.378
- RQ PLK4 [2]: 0.743
- RQ PRKCA [2]: 1.667
- RQ PRKCB [2]: 0.327
- RQ PRKCD [2]: 0.661
- RQ PRKCE [2]: 2.615
- RQ PTGS2 [2]: 7.499
- RQ RHOA [2]: 0.642
- RQ RHOB [2]: 0.437
- RQ TERT [2]: 0.604
- RQ TNKS [2]: 3.189
- RQ TOP2A [2]: 0.469
- RQ TOP2B [2]: 0.499
- RQ TP53 [2]: 1.021
- RQ TXN [2]: 0.546
- RQ TXNRD1 [2]: 1.341
- level of phospho-NF-κB p65 (S529) ([3]; 8 μM complex 1): reduced
- level of phospho-S6 (S235/S236) ([3]; 8 μM complex 1): reduced
- level of Akt1 [3]: reduced
- level of phospho-4EBP1 (T36/T45) [3]: not affected
- level of phospho-Akt (S473) [3]: reduced
- level of phospho-Akt (T308) [3]: not affected
- level of phospho-PI3K p85/p55 (T458/T199) [3]: not affected
- level of phospho-elF4E (S209) [3]: not affected
- level of phospho-mTOR (S2448) [3]: reduced
- cell morphology (May-Grunwald-Giemsa) [4]: cell morphology changes that were associated with apoptosis
